Tests used:
[1] = target: T1, equine serum butyrylcholinesterase (EqBuChE) (Equus caballus, UniProt P81908); assay: Anticholinesterase activity assay; format: biochemical, horse
[2] = target: T2, electric eel acetylcholinesterase (EeAChE) (Electrophorus electricus, UniProt O42275); assay: Anticholinesterase activity assay; format: biochemical
[3] = target: T1, equine serum butyrylcholinesterase (EqBuChE); assay: Enzymatic kinetic study; format: biochemical, horse
[4] = target: T2, electric eel acetylcholinesterase (EeAChE); assay: Enzymatic kinetic study; format: biochemical

T2 sequence (O42275 24-633): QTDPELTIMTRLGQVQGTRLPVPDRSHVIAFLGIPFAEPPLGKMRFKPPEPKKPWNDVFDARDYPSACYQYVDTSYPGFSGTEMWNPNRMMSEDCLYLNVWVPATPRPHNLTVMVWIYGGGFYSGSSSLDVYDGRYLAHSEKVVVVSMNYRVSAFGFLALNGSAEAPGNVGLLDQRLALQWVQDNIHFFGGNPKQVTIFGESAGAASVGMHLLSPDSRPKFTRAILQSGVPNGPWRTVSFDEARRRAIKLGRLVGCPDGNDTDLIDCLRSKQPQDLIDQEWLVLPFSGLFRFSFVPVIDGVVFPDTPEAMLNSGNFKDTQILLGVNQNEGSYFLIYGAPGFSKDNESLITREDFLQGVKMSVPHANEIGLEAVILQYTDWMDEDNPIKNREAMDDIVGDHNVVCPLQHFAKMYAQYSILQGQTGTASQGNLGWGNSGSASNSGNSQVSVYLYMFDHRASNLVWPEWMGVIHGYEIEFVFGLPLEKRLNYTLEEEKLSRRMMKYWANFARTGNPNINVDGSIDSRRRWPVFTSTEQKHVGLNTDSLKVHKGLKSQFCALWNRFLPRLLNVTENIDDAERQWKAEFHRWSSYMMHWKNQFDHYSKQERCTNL
T1 sequence (P81908 whole entry): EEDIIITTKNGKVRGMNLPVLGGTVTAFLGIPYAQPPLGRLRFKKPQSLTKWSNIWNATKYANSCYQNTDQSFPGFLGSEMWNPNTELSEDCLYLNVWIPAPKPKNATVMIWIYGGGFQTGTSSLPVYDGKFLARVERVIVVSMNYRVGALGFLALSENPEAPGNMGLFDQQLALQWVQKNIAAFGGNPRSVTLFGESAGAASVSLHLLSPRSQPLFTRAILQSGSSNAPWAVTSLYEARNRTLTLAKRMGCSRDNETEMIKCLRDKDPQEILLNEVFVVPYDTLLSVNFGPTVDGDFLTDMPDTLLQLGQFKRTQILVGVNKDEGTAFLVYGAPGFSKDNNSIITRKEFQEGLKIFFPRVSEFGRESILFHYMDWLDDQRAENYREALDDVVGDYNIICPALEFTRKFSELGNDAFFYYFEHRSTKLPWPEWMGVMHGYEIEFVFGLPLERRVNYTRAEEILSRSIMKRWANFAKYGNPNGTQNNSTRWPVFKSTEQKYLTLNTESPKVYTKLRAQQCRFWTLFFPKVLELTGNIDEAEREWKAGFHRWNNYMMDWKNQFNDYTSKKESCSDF

Row | SMILES | IC50 [1] | IC50 [2] | further results
1 | c1ccc(CN2CCN(CCCCCNc3nc(-c4ccccc4)n(-c4ccccc4)n3)CC2)cc1 [Compound 13c, N-(5-(4-benzylpiperazin-1-yl)pentyl)-1,5-diphenyl-1H-1,2,4-triazol-3-amine] | 1.65 ± 0.059 µM | 11 ± 0.251 µM | 
2 | c1ccc(CN2CCN(CCCCCCNc3nc(-c4ccccc4)n(-c4ccccc4)n3)CC2)cc1 [Compound 13d, N-(6-(4-benzylpiperazin-1-yl)hexyl)-1,5-diphenyl-1H-1,2,4-triazol-3-amine] | 2.21 ± 0.068 µM | 5.22 ± 0.188 µM | 
3 | c1ccc(CN2CCN(CCCNc3nc(-c4ccccc4)n(-c4ccccc4)n3)CC2)cc1 [Compound 13a, N-(3-(4-benzylpiperazin-1-yl)propyl)-1,5-diphenyl-1H-1,2,4-triazol-3-amine] |  |  | type of inhibition, BuChE [3]: mixed-type inhibition; type of inhibition, AChE [4]: mixed-type inhibition
4 | Nc1nc(-c2ccccc2)n(-c2ccccc2)n1 [Compound 6a, 1,5-Diphenyl-1,2,4-triazol-3-amine] |  |  | cholinesterase inhibition (BuChE), in words ([1]; at 30 μM): no significant cholinesterase inhibition; inhibition at 30 µM ([1]; read-out: BuChE inhibition (class NA in IC50 column)): < 20%; cholinesterase inhibition (AChE), in words ([2]; at 30 μM): no significant cholinesterase inhibition; inhibition at 30 µM ([2]; read-out: AChE inhibition (class NA in IC50 column)): < 20%
5 | c1ccc(CN2CCN(CCCCNc3nc(-c4ccccc4)n(-c4ccccc4)n3)CC2)cc1 [Compound 13b, N-(4-(4-benzylpiperazin-1-yl)butyl)-1,5-diphenyl-1H-1,2,4-triazol-3-amine] | 1.63 ± 0.111 µM | 3.79 ± 0.061 µM | 

Reference: publication PMC9065794 (RSC Advances, 2019)
